The record followed here is patent US20260297087A1, “Pyridoimidazolone Compounds, Preparation Thereof and Therapeutic Uses Thereof” (Sanofi, priority 2023, published 2026).

One experiment has as its target T1, ERK5 (Homo sapiens, UniProt Q13164).
T1 construct: MEF2-luciferase reporter
The experiment in a line: Inhibition of Cellular ERK5 Activity (cell-based assay, MEF2 luciferase reporter in SN12C cells). The conditions noted are these: renal cancer cell line SN12C, doxycycline-induced MEKSDD, mean where repeated. As to the method:
(§1) Two assays were performed to assess the ERK5 inhibitory activity of compounds of the Examples, a cell-based assay and a cell-free biochemical assay. Where repeat measurements were taken, the value reported is a mean average.
The renal cancer cell line SN12C was transduced by a lentivirus pGreenFire1 MEF2 EF1 Neo (ref TR030VA-N) from SBI using standard infection protocol. pGreenFire1 MEF2 EF1 Neo allows the expression of luciferase gene under the control of minimal promoter with MEF2 transcriptional response elements. Cells harboring the reporter construct were selected by geneticin treatment. The selected cells were then transposed by a piggyback based plasmid pCM4007 allowing the expression of constitutively activated MEKSDD under control of TREG3 promoter, a doxycycline regulated promoter. Transposed cells were selected by puromycin treatment. Upon doxycycline treatment (1p g/ml) MEKSDD was expressed. MEKSDD activates ERK5 that phosphorylates MEF2C protein. Activated MEF2C protein can bind to its transcriptional response elements. Then the luciferase is expressed. In a 96-well plate (96F nuncleon refl37101 thermofisher), 50,000 cells were inoculated in 142.5 μl of RPMI medium containing 10% fetal calf serum, 1% glutamine, and 1 μg/ml doxycycline. After 24 hours, compounds were added in 7.5 μl culture medium (with 2% DMSO to give a final concentration of 0.1%) in order to obtain the desired concentration (0.3-1000 nM). The luciferase activity was measured using the Kit Bright Glo Luminescent Cell Assay Cat E2610 (Promega) according to the manufacturer's protocol. Luminescence was determined using 0.2 second reading/well using a Tecan SPARK. IC50 values were calculated using XLFIT5 for Microsoft Excel using method 205. The IC50 values represent the concentration of compound which inhibits the measurable luminescence signal by 50% as compared to DMSO-treated control cells.
(In general: In a reporter assay the amount or activity of a reporter protein is the signal.)

The target of experiment [1] is T2, ERK5 (activated catalytic domain) (Homo sapiens, UniProt Q13164).
T2 construct: purchased CarnaBiosciences 04-146
The experiment in a line: Cell-Free Assay of ERK5 Inhibition (Time-Resolved FRET, 4EBP1 peptide phosphorylation). The format is biochemical. Here is the method:
as §1
An assay was performed to measure the capacity of each compound to inhibit ERK5 enzymatic activity. Compound potency was evaluated by Time-Resolved Forster Resonance Energy Transfer (FRET system). The activated catalytic domain of protein ERK5 (CarnaBiosciences #04-146) was mixed at 4 nM with varying concentrations of compound and incubated for 30 minutes at room temperature. A mixture of 1 mM ATP and 1 μM biotinylated synthetic peptide was added (Biosyntan GmbH). This synthetic peptide represents amino acids 30-52 of Eukaryotic translation initiation factor 4E-binding protein 1 (see, e.g., the sequence under accession No. NP_004086.1) biotinylated at the N-terminus. After 30 minutes at 37° C., the peptide phosphorylation by ERK5 was measured by addition of FRET reagents consisting of 12.5 μg/ml Streptavidin-XL665, 1 nM Anti-P-4EBP1 antibody and 300 ng/ml Anti-rabbit-K antibody. Following 90 minutes at room temperature fluorescent signals were read on the Pherastar FSX multimod detector from BMG Labtech (Exc° 340 nm, Em1 620 nm, Em2 665 nm). The IC50 values represent the concentration of compound which inhibits the measurable fluorescence signal by 50% as compared to the DMSO only control.

Where [2] appears, read: ERK5 catalytic domain 4 nM, 1 mM ATP, 1 μM biotinylated 4EBP1 peptide, 30 min at 37° C., mean where repeated, read-out: Cell-free assay (IC50 in nM).

Where two headings read alike, the source gives them in different places.

T1 sequence (Q13164 whole entry): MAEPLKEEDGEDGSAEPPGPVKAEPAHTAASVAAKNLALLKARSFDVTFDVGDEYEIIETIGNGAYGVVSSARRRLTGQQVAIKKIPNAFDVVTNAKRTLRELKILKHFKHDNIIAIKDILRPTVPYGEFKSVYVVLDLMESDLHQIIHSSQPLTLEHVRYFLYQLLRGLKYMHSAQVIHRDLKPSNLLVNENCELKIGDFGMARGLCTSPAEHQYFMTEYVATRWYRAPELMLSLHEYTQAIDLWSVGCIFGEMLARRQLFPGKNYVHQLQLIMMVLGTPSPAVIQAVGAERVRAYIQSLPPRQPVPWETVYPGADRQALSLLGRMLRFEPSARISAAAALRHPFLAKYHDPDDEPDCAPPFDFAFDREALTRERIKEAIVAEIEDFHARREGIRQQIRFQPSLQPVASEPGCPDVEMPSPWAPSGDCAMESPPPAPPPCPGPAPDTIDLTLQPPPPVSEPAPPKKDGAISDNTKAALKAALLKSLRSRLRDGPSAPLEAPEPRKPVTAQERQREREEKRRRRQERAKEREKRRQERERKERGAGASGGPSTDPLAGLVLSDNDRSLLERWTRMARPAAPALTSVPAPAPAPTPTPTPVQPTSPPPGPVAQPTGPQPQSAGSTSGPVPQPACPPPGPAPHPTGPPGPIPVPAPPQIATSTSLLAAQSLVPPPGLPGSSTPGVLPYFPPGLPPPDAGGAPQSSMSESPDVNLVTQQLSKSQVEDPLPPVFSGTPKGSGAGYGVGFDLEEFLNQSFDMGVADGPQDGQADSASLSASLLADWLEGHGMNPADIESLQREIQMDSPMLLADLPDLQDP
T2 sequence (Q13164 55-347 limits assumed): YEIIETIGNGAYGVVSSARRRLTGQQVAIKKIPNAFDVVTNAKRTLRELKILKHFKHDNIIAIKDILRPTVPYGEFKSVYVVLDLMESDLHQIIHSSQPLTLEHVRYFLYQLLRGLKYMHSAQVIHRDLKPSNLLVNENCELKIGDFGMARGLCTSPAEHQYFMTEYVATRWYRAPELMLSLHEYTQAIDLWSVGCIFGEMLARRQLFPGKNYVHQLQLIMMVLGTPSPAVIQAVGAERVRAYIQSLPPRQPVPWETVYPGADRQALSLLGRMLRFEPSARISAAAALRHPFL

What is called IC50 is the concentration that gives 50% inhibition. On to `O=C(c1ccc(OC(F)(F)F)cc1O)N1CCC(n2c(=O)[nH]c3ncc(C4CCOCC4)cc32)CC1` [Example 18, 1-[1-[2-Hydroxy-4-(trifluoromethoxy)benzoyl]-4-piperidyl]-6-tetrahydropyran-4-yl-3H-imidazo[4,5-b]pyridin-2-one], for which the IC50 worked out at 90 nM against ERK5; 54 nM in experiment [1] (setting [2]); 82 nM in experiment [1] (footnote: repeat measurement, mean average value, read-out: Cell-free assay IC50, repeat measurement).

For `O=C(c1ccc(S(F)(F)(F)(F)F)cc1)N1CCC(n2c(=O)[nH]c3ncc(C4CCOCC4)cc32)CC1` [Example 19, 1-[1-[4-(Pentafluoro-λ^6-sulfanyl)benzoyl]-4-piperidyl]-6-tetrahydropyran-4-yl-3H-imidazo[4,5-b]pyridin-2-one], the results for the IC50 (at ERK5; in experiment [1] (setting [2])) were 199 nM and 257 nM, respectively.

As to `Cc1nc2[nH]c(=O)n(C3CCN(C(=O)c4ccc(OC(F)(F)F)cc4N)CC3)c2cc1C1CCOCC1` [Example 20, 1-[1-[2-amino-4-(trifluoromethoxy)benzoyl]-4-piperidyl]-5-methyl-6-tetrahydropyran-4-yl-3H-imidazo[4,5-b]pyridin-2-one], the IC50 against ERK5 worked out at 486 nM; in experiment [1] (setting [2]), 1100 nM.

Turning to `Nc1cc(OC(F)(F)F)ccc1C(=O)N1CCC(n2c(=O)[nH]c3ncc(C4CC5(CC(F)C5)C4)cc32)CC1` (stereo not drawn) [Example 21, 1-[1-[2-amino-4-(trifluoromethoxy)benzoyl]-4-piperidyl]-6-(2-fluorospiro[3.3]heptan-6-yl)-3H-imidazo[4,5-b]pyridin-2-one], the values for the IC50 (against ERK5; in experiment [1] (setting [2])) were 42 nM and 395 nM, respectively.

For `COCCc1cnc2[nH]c(=O)n(C3CCN(C(=O)c4ccc(OC(F)(F)F)cc4N)CC3)c2c1` [Example 24, 1-[1-[2-amino-4-(trifluoromethoxy)benzoyl]-4-piperidyl]-6-(2-methoxyethyl)-3H-imidazo[4,5-b]pyridin-2-one], the IC50 at ERK5 amounted to 67 nM; in experiment [1] (setting [2]), 502 nM.

For `CO[C@H]1CC[C@H](c2cnc3[nH]c(=O)n(C4CCN(C(=O)c5ccc(OC(F)(F)F)cc5)CC4)c3c2)CC1` [Example 26, trans-6-(4-methoxycyclohexyl)-1-[1-[4-(trifluoromethoxy)benzoyl]-4-piperidyl]-3H-imidazo[4,5-b]pyridin-2-one], the values for the IC50 (against ERK5; in experiment [1] (setting [2])) were 118 nM and 235 nM, respectively.

In the case of `CO[C@H]1CC[C@@H](c2cnc3[nH]c(=O)n(C4CCN(C(=O)c5ccc(OC(F)(F)F)cc5)CC4)c3c2)CC1` [Example 27, cis-6-(4-methoxycyclohexyl)-1-[1-[4-(trifluoromethoxy)benzoyl]-4-piperidyl]-3H-imidazo[4,5-b]pyridin-2-one], the IC50 was 536 nM against ERK5 and 1180 nM in experiment [1] (setting [2]).

Consider `Nc1cc(OC(F)(F)F)ccc1C(=O)N1CCC(n2c(=O)[nH]c3ncc(C4CCC4)cc32)CC1` [Example 29, 1-[1-[2-amino-4-(trifluoromethoxy)benzoyl]-4-piperidyl]-6-cyclobutyl-3H-imidazo[4,5-b]pyridin-2-one], for which the IC50 at ERK5 is 213 nM; in experiment [1] (setting [2]) it was 420 nM.

Take `Nc1cc(OC(F)(F)F)ccc1C(=O)N1CCC(n2c(=O)[nH]c3ncc(C45CC(C(F)(F)F)(C4)C5)cc32)CC1` [Example 30, 1-[1-[2-amino-4-(trifluoromethoxy)benzoyl]-4-piperidyl]-6-[3-(trifluoromethyl)-1-bicyclo[1.1.1]pentanyl]-3H-imidazo[4,5-b]pyridin-2-one]: the IC50 against ERK5 was 310 nM; in experiment [1] (setting [2]) it was 15300 nM.

Turning to `Nc1cc(OC(F)(F)F)ccc1C(=O)N1CCC(n2c(=O)[nH]c3ncc(C45CCC(C4)C5)cc32)CC1` [Example 32, 1-[1-[2-amino-4-(trifluoromethoxy)benzoyl]-4-piperidyl]-6-(1-bicyclo[2.1.1]hexanyl)-3H-imidazo[4,5-b]pyridin-2-one], the figures for the IC50 (at ERK5; in experiment [1] (setting [2])) were 347 nM and 1140 nM, respectively.

Turning to `Nc1cc(OC(F)(F)F)ccc1C(=O)N1CCC(n2c(=O)[nH]c3ncc(C45CC(C(F)F)(C4)C5)cc32)CC1` [Example 33, 1-[1-[2-amino-4-(trifluoromethoxy)benzoyl]-4-piperidyl]-6-[3-(difluoromethyl)-1-bicyclo[1.1.1]pentanyl]-3H-imidazo[4,5-b]pyridin-2-one], the IC50 at ERK5 is 124 nM; in experiment [1] (setting [2]) it was 376 nM.

Consider `Nc1cc(OC(F)(F)F)ccc1C(=O)N1CCC(n2c(=O)[nH]c3ncc(C4CCC(F)(F)CC4)cc32)CC1` [Example 35, 1-[1-[2-amino-4-(trifluoromethoxy)benzoyl]-4-piperidyl]-6-(4,4-difluorocyclohexyl)-3H-imidazo[4,5-b]pyridin-2-one], for which the figures for the IC50 (against ERK5; in experiment [1] (setting [2])) were 205 nM and 695 nM, respectively.

As for `Nc1cc(OC(F)(F)F)ccc1C(=O)N1CCC(n2c(=O)[nH]c3ncc(C4CCCCC4)cc32)CC1` [Example 36, 1-[1-[2-amino-4-(trifluoromethoxy)benzoyl]-4-piperidyl]-6-cyclohexyl-3H-imidazo[4,5-b]pyridin-2-one], the IC50 at ERK5 was 285 nM; in experiment [1] (setting [2]), 888 nM.

As for `Nc1cc(OC(F)(F)F)ccc1C(=O)N1CCC(n2c(=O)[nH]c3ncc(C4CC5CCC4C5)cc32)CC1` (stereo not drawn) [Example 37, 1-[1-[2-amino-4-(trifluoromethoxy)benzoyl]-4-piperidyl]-6-norbornan-2-yl-3H-imidazo[4,5-b]pyridin-2-one], the IC50 against ERK5 amounted to 167 nM; in experiment [1] (setting [2]), 681 nM.

As to `Nc1cc(OC(F)(F)F)ccc1C(=O)N1CCC(n2c(=O)[nH]c3ncc(CC4CCOCC4)cc32)CC1` [Example 39, 1-[1-[2-amino-4-(trifluoromethoxy)benzoyl]-4-piperidyl]-6-(tetrahydropyran-4-ylmethyl)-3H-imidazo[4,5-b]pyridin-2-one], the IC50 was found to be 75 nM on ERK5 and 117 nM in experiment [1] (setting [2]).

For the compound `O=C(c1ccc(OC(F)(F)F)cc1)N1CCC(n2c(=O)[nH]c3ncc(C4CCOCC4)cc32)CC1` [Example 41, 6-tetrahydropyran-4-yl-1-[1-[4-(trifluoromethoxy)benzoyl]-4-piperidyl]-3H-imidazo[4,5-b]pyridin-2-one], the IC50 against ERK5 was found to be 152 nM; in experiment [1] (setting [2]), 557 nM.

For `O=C(c1ccc(OC(F)(F)F)cc1)N1CCC(n2c(=O)[nH]c3ncc(CC4COC4)cc32)CC1` [Example 42, 6-(oxetan-3-ylmethyl)-1-[1-[4-(trifluoromethoxy)benzoyl]-4-piperidyl]-3H-imidazo[4,5-b]pyridin-2-one], the IC50 at ERK5 is 136 nM; in experiment [1] (setting [2]) it was 354 nM.

As to `CO[C@H]1CC[C@H](c2cnc3[nH]c(=O)n(C4CCN(C(=O)c5ccc(OC(F)(F)F)cc5N)CC4)c3c2)CC1` [Example 45, trans-1-[1-[2-amino-4-(trifluoromethoxy)benzoyl]-4-piperidyl]-6-(4-methoxycyclohexyl)-3H-imidazo[4,5-b]pyridin-2-one], the IC50 is 29 nM against ERK5 and 107 nM in experiment [1] (setting [2]).

Consider `CO[C@H]1CC[C@@H](c2cnc3[nH]c(=O)n(C4CCN(C(=O)c5ccc(OC(F)(F)F)cc5N)CC4)c3c2)CC1` [Example 46, cis-1-[1-[2-amino-4-(trifluoromethoxy)benzoyl]-4-piperidyl]-6-(4-methoxycyclohexyl)-3H-imidazo[4,5-b]pyridin-2-one], for which the IC50 against ERK5 is 199 nM; in experiment [1] (setting [2]), 643 nM.
